# Measurements published in patent US20080039485A1, “LOW-DOSE-LONG-TERM PHARMACEUTICAL COMPOSITION COMPRISING CAMPTOTHECIN DERIVATIVES FOR THE TREATMENT OF CANCERS” (TARGETGEN BIOTECHNOLOGY CO., LTD., priority 2006, published 2008).
# Experiments:
# caspase-3 = assay: DEVD-pNA cleavage activity (Caspase-3 Colorimetric Assay Kit); assay type: cell-based, human; conditions: Colo-205 lysates, 48 hrs treatment, vs drug-free control
# Experimental: In addition, to further determine whether caspases participate in the propagation of apoptosis induced by 10-HCPT in Colo-205 cells, cell lysates from drug-treated cells were analyzed for the cleavage of the p-nitroaniline-tagged peptides N-Acetyl-Asp-Glu-Val-Aps-pNA (DEVD-pNA), which represent preferential substrates for caspase-3. Caspase activation leads to the release of pNA that can be monitored by absorbance measurements at 405 nm using a plate reader. Specifically, DEVD-pNA cleavage activity was measured using Caspase-3 Colorimetric Assay Kit (BioVision) according to the recommended protocols. 3×10^6 of 10-HCPT treated cells were harvested, resuspended in 50 μl of chilled cell lysis buffer and incubated on ice for 10 min before centrifugation (12,000 rpm for 3 min at 4° C.). The supernatant was collected and the total protein concentration of the supernatant was determined by Dc protein assay kit (Bio-Rad). Each assay reaction containing 100 μg of cell lysates, 50 μl of 2× reaction buffer supplemented with 10 mM DTT, and 5 μl of the 4 mM of DEVD-pNA (200 μM final concentration) was carried out at 37° C. for 1 hr. The formation of p-nitroanilide was detected at 405 nm in a microtiter plate reader.
# [1] = test system: cell cycle regulatory proteins in Colo-205 cells; assay: Western blotting of cell cycle regulatory proteins; assay type: cell-based, human; conditions: Colo-205, 3 μM, 48 hr
# Source text: The progression of the cell cycle is promoted by various CDKs binding with their respective cyclin partners and inhibited by CDK inhibitors such as p21 and p27. In general, CDK2 in association with cyclin E regulates the G1/S transition, and CDK1 in concert with type-A and -B cyclins controls the G2/M transition. Both cell cycle inhibitory proteins p21 and p27 block cell cycle progression at the G1/S as well as the G2/M transitions of cell cycle. […] To confirm this speculation, we analyzed the expressions of several cell cycle regulatory proteins by means of Western blotting assay as described below.
# Colo-205 cells were cultured in Dulbecco's modified Eagle Medium (DMEM) supplemented with 10% fetal bovine serum (FBS) at 37° C. in a 5% CO2 atmosphere. Cells were seeded in 6-well plate and incubated with 3 μM of 10-HCPT. After 48 hr, the treated cells were washed twice with phosphate-buffered saline (PBS), flash frozen in liquid nitrogen, and stored at −80° C. The harvested cells were lysed in ice-cold report lysis buffer (Promega). After cleaning the resulted lysates by centrifugation, protein in the clear lysate was quantified by Dc protein assay kit (Bio-Rad). 15 μg of lysate protein were resolved by 10% SDS-PAGE, transferred onto a polyvinylidene difluoride membrane (PVDF membrane, Amersham Biosciences), and immunoblotted with antibodies against followed cellular proteins: DNA topoisomerase I, p53, p27, phosphorylated p27 (Santa Cruz Biotechnology), cyclin E, CDK2 (BD Pharningen), PCNA, p21 (Upstate), and α-tubulin (Sigma). Protein content was visualized with BM Chemiluminescence Blotting Kit (Roche Molecular Biochemicals). The blots were exposed to X-ray film (Fuji) for various times.
# [2] = test system: human colon cancer Colo-205 cells; assay: MTT assay of cell growth, Colo-205; assay type: cell-based; conditions: for concentration at which significant growth inhibition was observed: Colo-205, day 2 and day 3, MTT, vs vehicle controls; for concentration at which complete growth inhibition was observed: Colo-205, days 1-3, MTT
# Experimental: (§1) Two human colon cancer cell lines, Colo-205 (ATCC accession No. CCL-222) and HT-29 (ATCC accession No. HTB-38), were used in this study. Cells were treated with 0.2, 0.76, 1.52, 7.62, 15.24, 22.87, 30.49, 38.11, 45.73 or 53.35 μM 10-HCPT or CPT-11 for 1-3 days, and the relative number of the viable cells was determined by MTT assay as described below.
# (§2) Cells were seeded in a 24-well cell culture cluster (Costar, Cambridge, Mass.) at a density of 1×10^6 cells per mL and cultured overnight prior to drug treatment. After 10-HCPT or CPT-11 treatment for 3 days, the medium was discarded and replaced with an equal volume (0.5 mL) of fresh medium containing 0.456 mg/mL 3-[4,5-dimethylthiazol-2-yl]-2,5-diphenyl-tetrazolium bromide (MTT; Sigma Chemical Company) and incubated for 2 hours at 37° C. in the dark. The medium was discarded, and cells were then combined with […] dimethyl sulfoxide (Sigma Chemical Company) to dissolve the formazan produced. Cell viability was determined according to the calorimetric comparison by reading optical density (OD) values from a microplate reader (Spectra Max 250; Spectra Diode Laboratories, CA) at an absorption wavelength of 570 nm.
# Colo-205 cells [3] = assay: Viable cell number by trypan blue exclusion assay; assay type: cell-based, human; conditions: 5, 10, 15 or 20 nM, 24 to 120 hr, vs untreated cells
# Experimental: To investigate the effect of 10-HCPT on the growth of Colo-205 cell line, the cells were treated with a series of dosages of 10-HCPT and harvested at different time points. The cell numbers were determined by trypan blue exclusion assay as described below.
# Colo-205 cells (5×10^5) were seeded in 25T flasks overnight and then treated without (control) and with 5, 10, 15, or 20 nM of 10-HCPT, respectively. After treatment for 24 to 120 hr, cells were harvested by trypsin-EDTA and then centrifuged at 1500 rpm for 5 min at 4° C. The cell pellet was resuspended in culture medium containing 0.04% trypan blue and the viable cells were enumerated by a hemocytometer.
# [4] = test system: caspases (IETD-pNA and LEHD-pNA substrates); assay: IETD-pNA and LEHD-pNA cleavage in cell lysates; assay type: cell-based, human; conditions: Colo-205 cells
# [5] = cited from earlier work
# Colo-205 cells [6] = assay: Cell cycle distribution by propidium iodide staining and flow cytometry; assay type: cell-based, human; conditions: various concentrations, 48 hrs
# Experimental: We further investigated if the suppression of cell growth induced by 10-HCPT on Colo-205 was due to either cell cycle arrest or cell death. The Colo-205 cells were treated with various concentrations of 10-HCPT for 48 hrs and analyzed by propidium iodide staining and flow cytometry as described below.
# After treatment with 10-HCPT, cells were trypsinized and resuspended in 70% ethanol. The cells were incubated on ice for at least 1 hr and resuspended in 1 mL of cell cycle assay buffer (0.38 mM sodium citrate, 0.5 mg/mL RNase A, and 0.01 mg/mL propidium iodide) at a concentration of 5×10^5 cells/mL. Samples were stored in the dark at 4° C. until cell cycle analysis, which was carried out by use of a flow cytometer and ModFit LT 2.0 software (Verity Software, Topsham, Me.).
# A FACScan flow cytometer (Becton Dickinson, Bedford, Mass.) equipped with a 488-nm argon laser was used for analysis of cellular function by flow cytometry. Forward and side scatters were used to establish size gates and exclude cellular debris from the analysis. The excitation wavelength was set at 488 nm. The observation wavelength of 530 nm was chosen for green fluorescence and 585 nm for red fluorescence and the intensities of emitted fluorescence were collected on FL1 and FL2 channels, respectively. In each measurement, a minimum of 20,000 cells was analyzed. Data were acquired and analyzed using the Cell Quest software (Becton Dickinson). Relative change in the mean fluorescence intensity was calculated as the ratio between mean fluorescence intensity in the channel of the treated cells and that of the control.
# histone H1 and H3 = conditions: murine hepatoma cells; cited from earlier work
# human Hep G2 cells = conditions: cited from earlier work
# Colo-205 xenografts = assay: In vivo antiproliferation, Colo-205 xenografts in BALB/c-nu mice; conditions: for tumor volume at day 24: control 300.5±22.3
# Experimental: We further examined whether 10-HCPT is effective in growth suppression in vivo after tumor formation. Colo-205 cells were transplanted into BALB/c-nu mice, and when the tumors were palpable (3-5 mm), the mice were treated either with vehicle control or 10-HCPT.
# The in vivo experiment was carried out with ethical committee approval and met the standards required by the Guiding Principles in the Use of Animals in Toxicology, which were adopted by the Society of Toxicology in 1989. The BALB/c-nu mice were obtained from National Laboratory Animal Center of National Applied Research Laboratories (Taipei, Taiwan) and housed in a laminar flow room under sterilized conditions with the temperature being maintained at 25±2° C. and the light controlled at 12 h light and 12 h dark cycle. The Colo 205 cells were harvested and resuspended in serum free RPMI-1640 medium. Cells were adjusted to 1×10^7 cells/mL, and transplanted subcutaneously on the flank regions of the mice. Each experimental group included six to seven mice bearing tumors.
# (§3) 10-HCPT was dissolved in propylene glycol and treatment began when the tumor size reached 3-5 mm. 10-HCPT was administered via p.o. once per two or four days at doses of 1-7.5 mg/kg (volume of injection: 0.1 mL/20 g of body weight), respectively. The control group received propylene glycol vehicle once per two days. Tumor size and body weight were monitored twice a week throughout the experiment. The tumor size was measured using a vernier caliper. Tumor volume (V) was calculated according to the formula: V (mm^3)=0.4AB^2, where A and B are the longest diameter and the shortest diameter, respectively. At the end of experiment, all mice were sacrificed by CO2 gas. Tumors, livers, kidneys, and lungs were collected, fixed, embedded and stained with hematoxylin and eosin for pathological analysis.
# [7] = test system: human colon cancer HT-29 cells; assay: MTT assay of cell growth, HT-29; assay type: cell-based; conditions: HT-29, days 1-3, MTT
# Experimental: as §1, §2
# [8] = Toxicity in xenograft-bearing nude mice (body weight, pathology); assay type: in vivo
# Experimental: as §3
# Colo-205 cells [9] = assay: DNA fragmentation assay; assay type: cell-based, human; conditions: various concentrations, 48 hrs, 1.5% agarose gel
# Source text: Because apoptosis always takes place as a consequence of a cell cycle block, it is possible that 10-HCPT is able to cause cell death through apoptosis pathway. To verify this possibility, we first performed DNA fragmentation assay since DNA fragmentation is one characteristic of apoptosis.
# The DNA of Colo-205 cells treated with various concentrations of 10-HCPT for 48 hrs was extracted and analyzed by 1.5% native agarose gel electrophoresis.
# [10] = well known in the art; cited from earlier work
# [11] = previous pharmacokinetic studies
compound,measurement,setting,value
"CC[C@@]1(O)C(=O)OCc2c1cc1n(c2=O)Cc2cc3cc(O)ccc3nc2-1 [10-HCPT, 10-hydroxy-camptothecin]",absorbance with the DEVD-pNA substrate,caspase-3,clearly elevated
same,CDK2 expression,[1],increasing expression
same,PCNA protein level,[1],no effect
same,amount of p27,[1],decreasing amount
same,cdc25c expression,[1],enhanced
same,cyclin B1 expression,[1],enhanced
same,cyclin E expression,[1],increasing expression
same,p21 protein level,[1],dramatically increased
same,concentration at which significant growth inhibition was observed,[2],0.2 µM
same,concentration at which complete growth inhibition was observed,[2],1 µM
same,effect on cell number increase,Colo-205 cells [3],suppression of cell number increasing in dose-dependent manner
same,caspase activation with IETD-pNA substrate,[4],only stimulated little caspase activations
same,caspase activation with LEHD-pNA substrate,[4],only stimulated little caspase activations
same,toxicity with i.v. administration,[5]; i.v.,Dose-dependent toxicity was observed
same,distribution half-life,[5]; [11],short
same,elimination half-life,[5]; [11],prolonged
same,cell populations in G0/G1 phase,Colo-205 cells [6],decreasing
same,cell populations in G2/M phase,Colo-205 cells [6],induced dramatically the increasing
same,population in sub G0/G1 phase,Colo-205 cells [6],increasing population
same,S phase of cell cycle,Colo-205 cells [6]; vs untreated,no significant differences
same,effect on phosphorylation of histone H1 and H3,histone H1 and H3,inhibitory effect
same,effect on differentiation,human Hep G2 cells,differentiation inducing effect
same,tumor volume at day 24,"Colo-205 xenografts; 2.5 mg/kg/2 days p.o., P<0.01",85.9±12.3 mm^3
same,tumor volume at day 24,Colo-205 xenografts; 2.5 mg/kg/4 days p.o.,273.1±33.7 mm^3
same,tumor volume at day 24,"Colo-205 xenografts; 5 mg/kg/2 days p.o., P<0.01",60.8±15.4 mm^3
same,tumor volume at day 24,"Colo-205 xenografts; 5 mg/kg/4 days p.o., p<0.05",228.9±45.3 mm^3
same,tumor volume at day 24,"Colo-205 xenografts; 7.5 mg/kg/2 days p.o., P<0.01",7.2±2.8 mm^3
same,tumor volume at day 24,"Colo-205 xenografts; 7.5 mg/kg/4 days p.o., p<0.05",182.9±43.9 mm^3
same,tumor growth suppression,"Colo-205 xenografts; oral, 2.5-7.5 mg/kg/2 days, nude mouse xenografts",obviously observed
same,concentration at which complete growth inhibition was observed,[7],0.5 µM
same,average body weight,"[8]; 7.5 mg/kg/2 days-treated group, end of study",slightly recovered
same,acute toxicity,"[8]; 1-7.5 mg/kg, p.o., once per two or four days, nude mice",no obvious acute toxicity
same,body weight,[8]; all treated groups except the 7.5 mg/kg/2 days-treated group,No significant reduction in body weight
same,"tissue damage in liver, lung and kidney",[8]; tissue slices stained with hematoxylin and eosin,no tissue damage was observed
same,DNA ladders,Colo-205 cells [9],DNA ladders were detected
"CC[C@@]1(O)C(=O)OCc2c1cc1n(c2=O)Cc2cc3ccccc3nc2-1 [CPT, Camptothecin]",water-solubility,[10],water-insoluble
CC[C@@]1(O)C(=O)OCc2c1cc1n(c2=O)Cc2cc3c(CN(C)C)c(O)ccc3nc2-1 [topotecan],water-solubility,[10],better water-solubility than CPT
irinotecan [CPT-11],concentration at which significant growth inhibition was observed,[2],22.87 µM
same,concentration at which complete growth inhibition was observed,[2],38.11 µM
same,water-solubility,[10],better water-solubility than CPT
same,concentration at which complete growth inhibition was observed,[7],45.73 µM
